Patent US6514979B1, “Synergistic combinations of guanosine analog reverse transcriptase inhibitors and inosine monophosphate dehydrogenese inhibitors and uses therefor” (University of Maryland Biotechnology Institute, priority 1999, dated 2003)
Where a name gives a salt, the structure may show the parent alone. Read-outs that look alike come from different tables or passages of the source.

How the values were obtained:
[1] = biological target: Type II isoform of IMPDH (Homo sapiens, UniProt P12268); conditions: stimulated lymphocytes isoform; cited from earlier work
[2] = biological target: inosine monophosphate dehydrogenase (IMPDH); conditions: literature values; read-out: Ki for IMPDH inhibition; cited from earlier work
[3] = test system: HIV-1; experiment: combined effects of MA and available nucleoside analogs (Table 2); type: cell-based
From the text: Although MA directly depletes cellular guanosine pools through inhibition of IMPDH, this may result secondarily in perturbations of other cellular enzyme activities. Such perturbations could result in beneficial or detrimental therapeutic effects. The combined effects of MA and available nucleoside analogs are described in Table 2: […]

[4] = test system: resistant HIV encoding M184V; experiment: replication of M184V mutant HIV-1 in PBMCs, day 7 p24; type: cell-based; conditions: Human immunodeficiency virus 1, PBMC, read-out: inhibition of resistant HIV encoding M184V
Method: (§1) Primary PBMCs were separated from whole blood of HIV seronegative donors by density centrifugation over Ficoll-Hypaque (Sigma). The culture medium consisted of RPMI supplemented with 10% fetal bovine serum (FBS), 2 mM glutamine and penicillin/streptomycin (Gibco, Grand Island, N.Y.). For infection studies involving PBMCs, cells were stimulated with 10 μg/mL phytohemagglutinin (PHA; Boehringer Mannheim, Indianapolis, Ind.) and cultured for 3 days. Stimulated PBMCs were infected by incubation with virus at a multiplicity of infection of 1000 TCID50/d10^6 PBMC for 2 hours. PBMC were then washed three times with PBS and cultured in 5% CO2 at 37° C, in RPMI/10% FBS supplemented with 10 units/mL IL-2 (Boehringer Mannheim) and drugs as appropriate. PBMC were seeded in 96-well flat-bottom plates at a density of 2×10^5 PBMC/200 μL. Following three days of culture, half of the medium was replaced with fresh medium containing IL-2 and drugs. After 7 days of culture HIV-1 p24 production in the culture supernatant was assayed by ELISA (Coulter, Hialeah, Fla.).

[5] = test system: HIV-1; conditions: monotherapy; cited from earlier work
[6] = test system: Wild-type HIV; experiment: replication of wild-type HIV-1 in PBMCs, day 7 p24; type: cell-based; conditions: Human immunodeficiency virus 1, PBMC; 4 μM abacavir
Method: as §1

[7] = test system: HIV-1 IIIb; experiment: p24 production by HIV-1 IIIb infected PHA-stimulated PBMCs, Greco interaction model; type: cell-based; conditions: HIV IIIb in PBMCs; for IC50: p24 day 7, Greco model estimate
Method: as §1
Additive antiviral effect was analyzed according to the definition of Loewe, using the interaction model of Greco et al. as was described above. This model is fully parametric, and point estimates of the model parameters are obtained in a traditional weighted, nonlinear least-squares approach. The model follows the equation below: [formula]
where α (alpha) is the synergism-antagonism interaction parameter, IC50.1 and IC50.2 are the drug concentrations resulting in 50% inhibition for drug 1 and drug 2, respectively; D1 and D2 are the concentration of drugs tested; Econ is the control effect in the absence of either drug, E is the observed effect , and m 1 and m 2 are the slope parameters for each drug. If the estimate of α is zero, the drug combination is additive; if α is positive, the interaction is synergistic; if α is negative, the interaction is antagonistic. […] That is, if the 95% confidence interval encompasses zero, the interaction is additive. […] This model was implemented using the ADAPT II programs (D'Argenio D. Z, Schumitzky A. ADAPT II: a program package for simulation identification and optimal experimental design. 1990. Biomedical Simulations Resource, Univ. Of Southern California, Los Angeles). Each drug combination was tested in triplicate so as to obtain an estimate of the variance of the effect at different drug concentration combinations.
The combined effect of abacavir and MA was examined in PBMC culture systems. PBMCs from a seronegative donor were stimulated with PHA and infected with the T-cell tropic isolate HIV-1 IIIb. At the clinically utilized dose (600 mg/day) of abacavir steady state peak serum levels are […] (4.47 μM; e.g.,see Ziagen package insert. Glaxo Wellcome, Inc., Research Triangle Park, N.C.). After a single 1000 mg dose of MA in a healthy individual, the mean peak serum level is 56.5 μM. Therefore, infected cells were cultured in the presence of abacavir from 0 to 4 μM, and in the presence of 0 to 1 μM of MA. On day 7 after infection the number of viable cells was determined by MTT assay (Boehringer Mannheim), and p24 antigen in the culture supernatant was measured.
The interaction of abacavir and MA in the suppression of HIV IIIb replication in PBMCs was analyzed using the Greco model as described above. Each data point was determined in triplicate. Each observation was weighted by the inverse of the observation variance. These parameters and their 95% confidence bounds are shown below: […]

[8] = test system: HIV reverse transcriptase M184V; conditions: cited from earlier work
[9] = test system: PBMC; experiment: MTT cell proliferation assay of PBMC cultures; conditions: 0.5 μM MA
Method: Cellular proliferation in culture in the presence or absence of MA and abacavir was measured using a commercial MMT cell proliferation assay, as per the manufacturer's instructions (Boehringer Mannheim).

[10] = single 1000 mg dose in a healthy individual; cited from earlier work
[11] = test system: IL-2 receptor signaling; conditions: high concentrations; cited from earlier work
[12] = test system: HIV-1; conditions: 1-10 μM; cited from earlier work
[13] = test system: neutrophil function; conditions: concentrations of up to 10 μM; cited from earlier work
[14] = test system: cellular guanosine pools; experiment: addition of deoxynucleosides to the culture media; type: cell-based; conditions: not shown
From the text: MA may synergize with abacavir via depletion of cellular guanosine pools, effectively increasing the intracellular concentration of abacavir. However, MA may also act via a general inhibitory effect on T lymphocyte proliferation, as has been hypothesized in the case of hydroxyurea (Lori F., Malykh A. G., Foli A., Maserati R., De Antoni A., Minoli L., Padrini D., Degli Antoni A., Barchi E., Jessen H., Wainberg M. A., Gallo R. C., Lisziewicz J. Combination of a drug targeting the cell with a drug targeting the virus controls human immunodeficiency virus type 1 resistance. AIDS Res Hum Retroviruses 1997; 13(16): 1403-9; De Boer R. J., Boucher C. A., Perelson A. S. Target cell availability and the successful suppression of HIV by hydroxyurea and didanosine. AIDS 1998; 12(13): 1567-70).

## COc1c(C)c2c(c(O)c1C/C=C(\C)CCC(=O)O)C(=O)OC2 [Mycophenolic acid]
[1]
  sensitivity of Type II isoform versus the isoform predominant in other cell lineages: four times more sensitive
[2]
  Ki: 2 to 10 nM

## OC[C@@H]1CC[C@H](n2cnc3c(O)ncnc32)O1 [didanosine, 2′,3′-dideoxyinosine]
[3]; concentration not given
  antiviral effect of nucleoside analog alone: 11

## Nc1ccn([C@H]2CC[C@@H](CO)O2)c(=O)n1 [zalcitibine, 2′,3′-dideoxycytidine]
[3]; concentration not given
  antiviral effect of nucleoside analog alone: 3.9

## Cc1cn([C@H]2C=C[C@@H](CO)O2)c(=O)[nH]c1=O [stavudine, 2′,3′-dihydro-3′-deoxythymidine]
[3]; 2 μM
  antiviral effect of nucleoside analog alone: 115

## Nc1nc(NC2CC2)c2ncn([C@H]3C=C[C@@H](CO)C3)c2n1 [abacavir, (1S,cis)-4-[2-amino-6-(cyclopropylamino)-9H-purin-9-yl]-2-cyclopentene-1-methanol sulfate]
[4]
  inhibition at 4 µM: 53%
[3]; 2 μM
  antiviral effect of nucleoside analog alone: 2.7
[5]
  drop in plasma HIV-1 RNA: 1.55 log
[6]
  inhibition at 4 µM: 98%
[7]; Greco model estimate
  m abacavir (slope parameter): 0.70
[7]; read-out: IC50 abacavir
  IC50: 630 nM
[7]; Human immunodeficiency virus 1, IIIB, PBMC, 168 h, read-out: IC50 abacavir
  IC50: 626 nM

## Cc1cn([C@H]2C[C@H](N=[N+]=[N-])[C@@H](CO)O2)c(=O)[nH]c1=O [zidovudine, 3′-azido-3′-deoxythymidine]
[3]; concentration not given
  antiviral effect of nucleoside analog alone: 84

## Nc1ccn([C@@H]2CS[C@H](CO)O2)c(=O)n1 (relative stereo) [3TC, (2R,cis)4-amino-1-(2-hydroxymethyl-1,3-oxathiolan-5-yl)-(1H)-pyrimidin-2-one]
[8]
  resistance conferred by M184V: high level resistance

## COc1c(C)c2c(c(O)c1C/C=C(\C)CCC(=O)OCCN1CCOCC1)C(=O)OC2 [MA, 2-morpholinoethyl ester of mycophenolic acid]
[3]; 0.125 μM MA
  antiviral effect of MA alone: 1.3
[3]; 0.5 μM MA
  antiviral effect of MA alone: 9.3
[9]
  antiproliferative effect: modest antiproliferative effect
[10]
  mean peak serum level: 56.5 µM
[11]
  effect on IL-2 receptor signaling: do not disrupt IL-2 receptor signaling
[12]
  effect on replication of HIV-1 in vitro: inhibit ed the replication
[7]; Greco model estimate
  m MA (slope parameter): 1.90
[7]; read-out: IC50 MA
  IC50: 110 nM
[7]; Human immunodeficiency virus 1, IIIB, PBMC, 168 h, read-out: IC50 MA
  IC50: 100 nM
[13]
  effect on neutrophil function: do not inhibit neutrophil function
[14]
  inhibitory effect of MA after addition of deoxyadenosine: no effect
  inhibitory effect of MA after addition of deoxyguanosine: ablated the inhibitory effect
